How the values were obtained:
MCF7 breast cancer cells = test: RNA-Seq gene expression profiling of isopicrinine-treated MCF7 cells; assay type: cell-based, human; details: MCF7, vs DMSO control, dose not given
Method: MCF7 cells (1.6×10^5 cells) were treated with varying doses (sub-lethal) of purified isopicrinine i.e., 30 μM and 150 μM, in triplicates, for 18 hrs at 37° C. Total RNA was extracted using TRIzol reagent. Gene expression analyses of drug-treated MCF7 cells in the presence of sub-lethal concentrations of isopicrinine were performed using Illumina HiSeq. Each RNA was ribo-depleted (Ribo-Zero, Epicentre) prior to cDNA libarary preparation (ScriptSeq epicenter). Each cDNA was separately barcode tagged during library preparation, and sequenced in multiplex generating approximately >40 million 100 bp reads per sample for the mammalian cell line. The Illumina reads were mapped to their respective assembled reference transcriptome sequence using the mapping software TopHat and Cufflinks (Trapnell, C., Pachter, L., Salzberg, S. L. 2009. TopHat: discovering splice junctions with RNA-Seq. Bioinformatics, May 1; 25(9):1105-11. doi: 10.1093/bioinformatics/btp120, incorporated herein by reference in its entirety). Illumina read abundances mapping to each reference contig was normalized using the RPKM (reads per Kb per million reads) calculation. Differentially expressed transcripts were identified and functionally annotated using a variety of statistical analyses available via bioconductor in R language (Durinck, S., Moreau, Y., Kasprzyk, A., Davis, S., De Moor, B., Brazma, A., Huber, W. 2005. BioMart and Bioconductor: a powerful link between biological databases and microarray data analysis. Bioinformatics, 21(16), 3439-3440. doi: 10.1093/bioinformatics/bti525, incorporated herein by reference in its entirety). Clusters of differentially expressed and cycling transcripts were annotated to identify over-represented GO/KEGG pathways (Kanehisa, M., Goto, S., Sato, Y., Furumichi, M., Tanabe, M., 2012. KEGG for integration and interpretation of large-scale molecular data sets. Nucleic Acids Res., 40 (Database issue), D109-14. doi: 10.1093/nar/gkr988, incorporated herein by reference in its entirety).
MCF7 cell line was treated with sub-lethal doses of 30 μM and 150 μM of isopicrinine. […] RNA-Seq transcription profiling was performed for analyzing the transcriptome profile in alkaloid treated MCF7 cells in order to evaluate the pharmacological effects of the new alkaloid isolated from Rhazya stricta. To identify the differentially regulated/expressed genes after treatment with isopicrinine, RNA was extracted from alkaloid treated MCF7 cells (30 μM and 150 μM doses) and DMSO-treated control cells and RNA-Seq experiment was carried out. The sequencing data were compared and analyzed to identify the differentially expressed genes in mammalian cells after treatment with isopicrinine.

AsPC1 cell line = test: cells; assay type: cell-based; details: Homo sapiens, ASPC1, 24 h, read-out: % Cell viability
Method: (§1) MCF7, a breast cancer cell line was procured from the American Type Culture Collection (ATCC) and propagated in Dulbecco's Modified Eagle's medium (DMEM) supplemented with 10% (v/v) fetal bovine serum (FBS), 100 μg/ml streptomycin and 100 U/ml penicillin at 37° C. in a humidified incubator with 5% CO2. Human pancreatic cell lines, AsPC1 and PANC1, were obtained from the American Type Culture Collection (ATCC). AsPC1 cell line was grown in RPMI-1640 medium supplemented with 10% (v/v) fetal bovine serum (FBS), 100 μg/ml streptomycin and 100 U/ml penicillin. PANC1 cell line was cultured in DMEM supplemented with 10% (v/v) fetal bovine serum (FBS), 100 μg/ml streptomycin and 100 U/ml penicillin.
(§2) PANC1 and AsPC1 cells (1.3×10^4 cells/well) were sub-cultured in 96-well plates and incubated at 37° C. in a humidified incubator with 5% CO2 for 24 hrs. Varying concentrations of isopicrinine (i.e., 0, 30 μM, 75 μM, 150 μM and 300 μM were added to the cultured cells and further incubated at 37° C. in a humidified incubator with 5% CO2 for 24 hrs. The cell viability was determined using MTT (3-(4,5-dimethylthiazol-2-yl)-2,5-diphenyltetrazolium bromide) assay by following the manufacturer's instructions. Briefly, 20 μl/well of MTT was added to the cells and plates were incubated for 4 hrs. After the incubation, media along with the MTT was removed and 150 μl/well of isopropanol was added and further incubated for 15 min on shaker incubator. Spectrophotometer readings were taken at 450 nm and 630 nm. This assay is based on the conversion of yellow tetrazolium salt MTT to purple formazan crystal by metabolically active cells. The amount of formazan produced is proportional to the number of viable cells.

PANC1 cell line = test: cells; assay type: cell-based; details: Homo sapiens, PANC-1, 24 h, read-out: % Cell Viability
Method: as §1, §2

[1] = Response to DNA damage stimulus

Structure (SMILES): C/C=C1\CN2[C@H]3C[C@@H]1[C@@H](C(=O)OC)[C@]14C[C@H]2O[C@]31Nc1ccccc14 [isopicrinine]
- log2 (fold change) KRT81 (MCF7 breast cancer cells; Cytoskeleton): 1.797
- log2 (fold change) PTP4A1 (MCF7 breast cancer cells; Cytoskeleton): 1.331
- log2 (fold change) BRCA1 (MCF7 breast cancer cells; DNA repair): −1.076
- log2 (fold change) EXO1 (MCF7 breast cancer cells; DNA repair): −1.784
- log2 (fold change) RAD51AP1 (MCF7 breast cancer cells; DNA repair): −1.652
- log2 (fold change) UHRF1 (MCF7 breast cancer cells; DNA repair): −1.1337
- log2 (fold change) CDC45 (MCF7 breast cancer cells; DNA replication): −1.801
- log2 (fold change) MCM3 (MCF7 breast cancer cells; DNA replication): −1.644
- log2 (fold change) MCM4 (MCF7 breast cancer cells; DNA replication): −1.522
- log2 (fold change) MCM5 (MCF7 breast cancer cells; DNA replication): −1.878
- log2 (fold change) MCM6 (MCF7 breast cancer cells; DNA replication): −1.423
- log2 (fold change) MCM7 (MCF7 breast cancer cells; DNA replication): −1.716
- log2 (fold change) MCM8 (MCF7 breast cancer cells; DNA replication): −1.013
- log2 (fold change) MCM10 (MCF7 breast cancer cells; DNA replication): −1.321
- log2 (fold change) RFC3 (MCF7 breast cancer cells; DNA replication): −1.142
- log2 (fold change) RRM2 (MCF7 breast cancer cells; DNA replication): −1.2797
- log2 (fold change) TOP2A (MCF7 breast cancer cells; DNA replication): −1.662
- log2 (fold change) BBC3 (MCF7 breast cancer cells; Induction of apoptosis): 1.481
- log2 (fold change) CDKN1A (MCF7 breast cancer cells; Induction of apoptosis): 1.119
- log2 (fold change) INHBA (MCF7 breast cancer cells; Induction of apoptosis): 1.026
- log2 (fold change) MAGED1 (MCF7 breast cancer cells; Induction of apoptosis): 0.8954
- log2 (fold change) LTBP4 (MCF7 breast cancer cells; Regulation of cell growth): 1.504
- log2 (fold change) SPP1 (MCF7 breast cancer cells; Regulation of cell growth): 1.075
- log2 (fold change) VGF (MCF7 breast cancer cells; Regulation of cell growth): 0.9472
- log2 (fold change) ATAD2 (MCF7 breast cancer cells; Regulation of transcription): −1.388
- log2 (fold change) ATAD5 (MCF7 breast cancer cells; Regulation of transcription): −1.628
- log2 (fold change) ATF3 (MCF7 breast cancer cells; Regulation of transcription): 1.3961
- log2 (fold change) BRIP1 (MCF7 breast cancer cells; Regulation of transcription): −1.416
- log2 (fold change) EGR1 (MCF7 breast cancer cells; Regulation of transcription): 1.39
- log2 (fold change) FHL2 (MCF7 breast cancer cells; Regulation of transcription): 1.024
- log2 (fold change) MDM2 (MCF7 breast cancer cells; Regulation of transcription): 1.725
- log2 (fold change) MXI1 (MCF7 breast cancer cells; Regulation of transcription): 1.118
- log2 (fold change) MYBL2 (MCF7 breast cancer cells; Regulation of transcription): −1.231
- log2 (fold change) NRG1 (MCF7 breast cancer cells; Regulation of transcription): 0.8825
- log2 (fold change) BTG2 (MCF7 breast cancer cells; [1]): 1.485
- log2 (fold change) CCND1 (MCF7 breast cancer cells; [1]): 1.49
- log2 (fold change) DDB2 (MCF7 breast cancer cells; [1]): 1.191
- log2 (fold change) GADD45A (MCF7 breast cancer cells; [1]): 1.333
- viability at 30 µM (AsPC1 cell line): 87.7%
- viability at 75 µM (AsPC1 cell line): 55.9%
- viability at 150 µM (AsPC1 cell line): 53.5%
- viability at 300 µM (AsPC1 cell line): 42.4%
- viability at 30 µM (PANC1 cell line): 74.5%
- viability at 75 µM (PANC1 cell line): 70.8%
- viability at 150 µM (PANC1 cell line): 69.6%
- viability at 300 µM (PANC1 cell line): 64.6%

From patent US10292972B1, “Pharmaceutical composition for treating cancer and a method thereof” (King Abdulaziz University, priority 2017, dated 2019)
